According to PubChem BioAssay AID2060337 (Molecular Pharmacology Branch, DTP, NCI, 2025):

System: 832693-133-R-J1-PDC multi-cell spheroids, viability
Experiment: Anticancer human tumor 832693-133-R-J1-PDC patient-derived head and neck squamous carcinoma cell line growth inhibition [IpAb]
Conditions: for IC50: curve of first compound; for viability, T/C: stronger effect = lower value
Outline: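 Combinations with ipatasertib or abemaciclib were tested on tumour spheroids holding HUVEC (25%) and MSC (15%) alongside 60% malignant cells. Top concentration was at or near clinical Cmax (10 microM if undefined), descending in half-log steps.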

[1] = second compound 0.01 µM, first compound 0.0316 µM
[2] = second compound 0.01 µM, first compound 0.1 µM
[3] = second compound 0.01 µM, first compound 0.316 µM
[4] = second compound 0.01 µM, first compound 1 µM
[5] = second compound 0.01 µM, first compound 3.16 µM
[6] = second compound 0.01 µM, first compound 10 µM
[7] = second compound 0.0316 µM, first compound 0.0316 µM
[8] = second compound 0.0316 µM, first compound 0.1 µM
[9] = second compound 0.0316 µM, first compound 0.316 µM
[10] = second compound 0.0316 µM, first compound 1 µM
[11] = second compound 0.0316 µM, first compound 3.16 µM
[12] = second compound 0.0316 µM, first compound 10 µM
[13] = second compound 0.1 µM, first compound 0.0316 µM
[14] = second compound 0.1 µM, first compound 0.1 µM
[15] = second compound 0.1 µM, first compound 0.316 µM
[16] = second compound 0.1 µM, first compound 1 µM
[17] = second compound 0.1 µM, first compound 3.16 µM
[18] = second compound 0.1 µM, first compound 10 µM
[19] = second compound 0.316 µM, first compound 0.0316 µM
[20] = second compound 0.316 µM, first compound 0.1 µM
[21] = second compound 0.316 µM, first compound 0.316 µM
[22] = second compound 0.316 µM, first compound 1 µM
[23] = second compound 0.316 µM, first compound 3.16 µM
[24] = second compound 0.316 µM, first compound 10 µM
[25] = second compound 1 µM, first compound 0.0316 µM
[26] = second compound 1 µM, first compound 0.1 µM
[27] = second compound 1 µM, first compound 0.316 µM
[28] = second compound 1 µM, first compound 1 µM
[29] = second compound 1 µM, first compound 3.16 µM
[30] = second compound 1 µM, first compound 10 µM
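Further: spheroids exposed to the drugs for one week before the viability readout.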
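Wherever viability, T/C is given: 100% = DMSO vehicle control wells.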

| SMILES | IC50 (second compound 0.01 µM) [nM] | IC50 (second compound 0.0316 µM) [nM] | IC50 (second compound 0.1 µM) [nM] | IC50 (second compound 0.316 µM) [nM] | IC50 (second compound 1 µM) [nM] | viability, T/C [1] [%] | viability, T/C [2] [%] | viability, T/C [3] [%] | viability, T/C [4] [%] | viability, T/C [5] [%] | viability, T/C [6] [%] | viability, T/C [7] [%] | viability, T/C [8] [%] | viability, T/C [9] [%] | viability, T/C [13] [%] | viability, T/C [14] [%] | viability, T/C [19] [%] | viability, T/C [20] [%] | viability, T/C [25] [%] | viability, T/C [26] [%] | also measured |
| --- | --- | --- | --- | --- | --- | --- | --- | --- | --- | --- | --- | --- | --- | --- | --- | --- | --- | --- | --- | --- | --- |
| C=CCn1c(=O)c2cnc(Nc3ccc(N4CCN(C)CC4)cc3)nc2n1-c1cccc(C(C)(C)O)n1 + CCN1CCN(Cc2ccc(Nc3ncc(F)c(-c4cc(F)c5nc(C)n(C(C)C)c5c4)n3)nc2)CC1 | 233 | 246 | 138 | 134 | 2620 | 93.9 | 66.6 | 42.4 | 28.9 | 27.5 | 13.9 | 74.7 | 68 | 40.4 | 65.9 | 51.8 | 53.4 | 52.9 | 61.9 | 65.9 | viability, T/C [10]: 33.2%; viability, T/C [11]: 29.3%; viability, T/C [12]: 14.9%; viability, T/C [15]: 41.6%; viability, T/C [16]: 33.3%; viability, T/C [17]: 30.9%; viability, T/C [18]: 19.1%; viability, T/C [21]: 47.9%; viability, T/C [22]: 37.4%; viability, T/C [23]: 35.2%; viability, T/C [24]: 25%; viability, T/C [27]: 56.7%; viability, T/C [28]: 53.6%; viability, T/C [29]: 51.6%; viability, T/C [30]: 23.8% |
| CC(C)n1nc(-c2ccc3oc(N)nc3c2)c2c(N)ncnc21 + CCN1CCN(Cc2ccc(Nc3ncc(F)c(-c4cc(F)c5nc(C)n(C(C)C)c5c4)n3)nc2)CC1 | > 100 | 36.3 | 10.6 | 2.03 | 0.859 | 50.6 | 53.2 | – | – | – | – | 52.4 | 38.4 | – | 43 | 34.5 | 42.9 | 34.8 | 39.8 | 38.6 | viability, T/C (second compound 0.01 µM, first compound 0.000316 µM): 83%; viability, T/C (second compound 0.01 µM, first compound 0.001 µM): 82.8%; viability, T/C (second compound 0.01 µM, first compound 0.00316 µM): 73.5%; viability, T/C (second compound 0.01 µM, first compound 0.01 µM): 77.8%; viability, T/C (second compound 0.0316 µM, first compound 0.000316 µM): 71.8%; viability, T/C (second compound 0.0316 µM, first compound 0.001 µM): 73.6%; viability, T/C (second compound 0.0316 µM, first compound 0.00316 µM): 64%; viability, T/C (second compound 0.0316 µM, first compound 0.01 µM): 61%; viability, T/C (second compound 0.1 µM, first compound 0.000316 µM): 61%; viability, T/C (second compound 0.1 µM, first compound 0.001 µM): 56%; viability, T/C (second compound 0.1 µM, first compound 0.00316 µM): 52.7%; viability, T/C (second compound 0.1 µM, first compound 0.01 µM): 53%; viability, T/C (second compound 0.316 µM, first compound 0.000316 µM): 50.6%; viability, T/C (second compound 0.316 µM, first compound 0.001 µM): 55.7%; viability, T/C (second compound 0.316 µM, first compound 0.00316 µM): 49%; viability, T/C (second compound 0.316 µM, first compound 0.01 µM): 42.3%; viability, T/C (second compound 1 µM, first compound 0.000316 µM): 59.5%; viability, T/C (second compound 1 µM, first compound 0.001 µM): 50.3%; viability, T/C (second compound 1 µM, first compound 0.00316 µM): 41.6%; viability, T/C (second compound 1 µM, first compound 0.01 µM): 38.2% |
| CC1(C)CCC(CN2CCN(c3ccc(C(=O)NS(=O)(=O)c4ccc(NCC5CCOCC5)c([N+](=O)[O-])c4)c(Oc4cnc5[nH]ccc5c4)c3)CC2)=C(c2ccc(Cl)cc2)C1 + CCN1CCN(Cc2ccc(Nc3ncc(F)c(-c4cc(F)c5nc(C)n(C(C)C)c5c4)n3)nc2)CC1 | 5410 | 6550 | 4190 | 4120 | 4600 | 93.7 | 104 | 102 | 96.1 | 75.2 | 21.2 | 89 | 93.9 | 85.8 | 73.1 | 69 | 55.6 | 61 | 63.9 | 72.1 | viability, T/C [10]: 86.5%; viability, T/C [11]: 83.6%; viability, T/C [12]: 30.4%; viability, T/C [15]: 78.1%; viability, T/C [16]: 71.2%; viability, T/C [17]: 60.4%; viability, T/C [18]: 17.7%; viability, T/C [21]: 51.9%; viability, T/C [22]: 67.3%; viability, T/C [23]: 75.5%; viability, T/C [24]: 9.24%; viability, T/C [27]: 80.2%; viability, T/C [28]: 68.5%; viability, T/C [29]: 72.9%; viability, T/C [30]: 5.47% |
| CCCS(=O)(=O)Nc1ccc(F)c(C(=O)c2c[nH]c3ncc(-c4ccc(Cl)cc4)cc23)c1F + CCN1CCN(Cc2ccc(Nc3ncc(F)c(-c4cc(F)c5nc(C)n(C(C)C)c5c4)n3)nc2)CC1 | 5060 | 3490 | 1240 | < 31.6 | 77.5 | 97.9 | 105 | 100 | 87.6 | 63.6 | 30.9 | 88.7 | 88.4 | 81.5 | 66.3 | 60.1 | 44.8 | 51.9 | 50.5 | 49.6 | viability, T/C [10]: 74.9%; viability, T/C [11]: 51.4%; viability, T/C [12]: 28.3%; viability, T/C [15]: 64.9%; viability, T/C [16]: 51.9%; viability, T/C [17]: 35.7%; viability, T/C [18]: 15.2%; viability, T/C [21]: 40.4%; viability, T/C [22]: 36.9%; viability, T/C [23]: 26.6%; viability, T/C [24]: 13.4%; viability, T/C [27]: 44.2%; viability, T/C [28]: 24.8%; viability, T/C [29]: 18.8%; viability, T/C [30]: 13.3% |
